# Reference: patent EP4778922A1, “BICYCLIC COMPOUND, AND PREPARATION METHOD THEREFOR AND PHARMACEUTICAL USE THEREOF” (Shanghai Jeyou Pharmaceutical Co., Ltd., priority 2023, dated 2025)
# pIC50: −log10 of the molar value. Read-outs that look alike come from different tables or passages of the source.
# What was measured:
# 22RV1 cells = assay: Cell proliferation inhibition assay in 22RV1 cells (CellTiter-Glo, 7 days); assay type: cell-based, human; details: Homo sapiens
# Summary of the method: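 22RV1 cells received compound alone; LNCaP cells were stimulated with 0.2 nM DHT added 1 h after compound. Seeding was 3000 cells/well.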
# LNCaP cells = assay: Cell proliferation inhibition assay in LNCaP cells (0.2 nM DHT, CellTiter-Glo, 7 days); assay type: cell-based, human; details: Homo sapiens, 168 h
# Procedure: • 1. The human prostate cancer cell lines 22RV1 and LNCaP were purchased from ATCC. […] The cell concentration was adjusted to an appropriate concentration (determined based on the results of cell density optimization experiments), and the cells were seeded into a 96-well plate. A 100 µL cell suspension was added, resulting in 3000 cells per well. […] On the second day, for 22Rv1 cells, test compounds at different concentrations were added, and the cells were incubated at 37°C in a 5% CO2 incubator for 7 days; for LNCaP cells, test compounds at different concentrations were added first, and after 1 hour of treatment, 0.2 nM DHT was added. The cells were then incubated at 37°C in a 5% CO2 incubator for 7 days. • 4. After the incubation period, a volume of CellTiter-Glo detection reagent equal to the volume of the culture medium was added to each well. The plate was shaken and mixed thoroughly for 5 minutes, then incubated at room temperature for 10 minutes. Readings were taken using a PerkinElmer EnVision microplate reader. • 5.
# The IC50 curve was fitted and the IC50 value was calculated using the software GraphPad Prism 8 with the calculation formula XY-analysis/Nonlinear regression (curve fit)/Dose response-Inhibition/log (inhibitor) vs. response-Variable slope (four parameters).
# [1] = Mouse pharmacokinetic test; assay type: in vivo, ICR mice; details: plasma, 30 mg/kg, PO-30mpk; for Tmax: read-out: Tmax
# Procedure: Formulation preparation: The dosing solutions were prepared on the day of administration.
# Six healthy male naive ICR mice weighing 25-30 g were selected and divided into two groups (intravenous and oral groups), with three mice in each group, and administered a single dose. […] Feeding was resumed 4 h after administration. Timing was initiated following intravenous and oral administration. […] The collected whole blood was briefly vortexed twice for mixing, placed on wet ice, and centrifuged at 4°C and 8000 rpm for 5 min within 1 h. The supernatant plasma was collected and stored at -80°C until processing and analysis. Table 3: Pharmacokinetics in mice
compound,measurement,setting,value
CC(C)(c1ccc(-c2cnc(OCc3ccnc(N4CC5(CCS5(=N)=O)C4)n3)cn2)cc1)c1cc(Cl)c(OCCCl)c(C#N)c1 (racemic) [Compound 375],pIC50,22RV1 cells; 168 h,6.92
same,pIC50,LNCaP cells,7.23
"CC(C)(c1ccc(-c2cnc(OCc3ccnc(N4CC(S(=N)(=O)C5CC5)C4)n3)cn2)cc1)c1cc(Cl)c(OCCCl)c(C#N)c1 (single isomer, unassigned) [Compound 350B]",pIC50,LNCaP cells,6.30
"CC(C)(c1ccc(-c2ncc(OCc3ccnc(N4CC(S(C)(=N)=O)C4)n3)cn2)cc1)c1cc(Cl)c(OCCCl)c(C#N)c1 (single isomer, unassigned) [Compound 366A]",pIC50,LNCaP cells,6.01
CC(C)(c1ccc(-c2ccc(OCc3ccnc(N=S4(=O)CCNCC4)n3)cc2)cc1)c1cc(Cl)c(OCCCl)c(C#N)c1 [Compound 108],pIC50,22RV1 cells; 168 h,7.22
same,pIC50,LNCaP cells,6.52
CC(C)(c1ccc(-c2ccc(OCc3ccnc(N=S4(=O)CCN(CCO)CC4)n3)cc2)cc1)c1cc(Cl)c(OCCCl)c(C#N)c1 [Compound 164],pIC50,22RV1 cells; 168 h,7.35
same,pIC50,LNCaP cells,6.32
CC(C)(c1ccc(-c2ccc(OCc3ccnc(N=S4(=O)CCN(CC(F)F)CC4)n3)cn2)cc1)c1cc(Cl)c(OCCCl)c(C#N)c1 [Compound 179],pIC50,22RV1 cells; 168 h,6.39
same,pIC50,LNCaP cells,6.28
CCCOc1c(Cl)cc(C(C)(C)c2ccc(-c3ccc(OCc4ccnc(P(C)(C)=O)n4)cc3)cc2)cc1C#N [Compound 191],pIC50,22RV1 cells; 168 h,6.39
same,AUC(0-inf),[1],481 µg·h/mL
same,Cmax,[1],25000 ng/mL
same,half-life,[1],13.2 h
same,Tmax,[1],4 h
CC(C)(c1ccc(-c2ccc(OCc3ccnc(N4CC(N=S(C)(C)=O)C4)n3)cc2)cc1)c1cc(Cl)c(OCCCl)c(C#N)c1 [Compound 195],pIC50,22RV1 cells; 168 h,7.42
same,pIC50,LNCaP cells,6.34
CC(C)(c1ccc(-c2ccc(OCc3ccnc(N4CC[C@H](S(C)(=O)=O)C4)n3)cc2)cc1)c1cc(Cl)c(OCCCl)c(C#N)c1 [Compound 202],pIC50,"22RV1 cells; 22Rv1, 168 h",6.18
same,AUC(0-inf),[1]; po,202 µg·h/mL
same,Cmax,[1]; po,8880 ng/mL
same,half-life,[1]; po,18.5 h
same,Tmax,[1]; po,4 h
CC(C)(c1ccc(-c2ccc(OCCOc3nccc(N4CC5(COC5)C4)n3)cc2)cc1)c1cc(Cl)c(OCCCl)c(C#N)c1 [Compound 203],pIC50,"22RV1 cells; 22Rv1, 168 h",7.33
same,pIC50,LNCaP cells; LNCaP,6.36
CC(C)(c1ccc(-c2ccc(OCc3ccnc(N4CC5(COC5)C4)n3)nc2)cc1)c1cc(Cl)c(OCCCl)c(C#N)c1 [Compound 209],pIC50,22RV1 cells; 168 h,6.54
same,pIC50,LNCaP cells,6.38
CC(C)(c1ccc(-c2ccc(OCc3ncc(P(C)(C)=O)s3)cc2)cc1)c1cc(Cl)c(OCCCl)c(C#N)c1 [Compound 221],pIC50,"22RV1 cells; 22Rv1, 168 h",5.98
same,AUC(0-inf),[1]; po,464 µg·h/mL
same,Cmax,[1]; po,19300 ng/mL
same,half-life,[1]; po,10.4 h
same,Tmax,[1]; po,5 h
COc1c(Cl)cc(C(C)(C)c2ccc(-c3ccc(OCc4ccnc(P(C)(C)=O)n4)cc3)cc2)cc1C#N [Compound 237],pIC50,"22RV1 cells; 22Rv1, 168 h",6.07
same,AUC(0-inf),[1]; po,213 µg·h/mL
same,Cmax,[1]; po,16200 ng/mL
same,half-life,[1]; po,4.2 h
same,Tmax,[1]; po,3 h
CC(C)(c1ccc(-c2ccc(OCc3ccnc(N4CC5(CC(S(C)(=N)=O)C5)C4)n3)cc2)cc1)c1cc(Cl)c(OCCCl)c(C#N)c1 (stereo not drawn) [Compound 245],pIC50,"22RV1 cells; 22Rv1, 168 h",6.00
same,AUC(0-inf),[1]; po,181 µg·h/mL
same,Cmax,[1]; po,11000 ng/mL
same,half-life,[1]; po,7.3 h
same,Tmax,[1]; po,5 h
CC(C)(c1ccc(-c2ccc(COc3ccnc(P(C)(C)=O)n3)cc2)cc1)c1cc(Cl)c(OCCCl)c(C#N)c1 [Compound 253],pIC50,"22RV1 cells; 22Rv1, 168 h",5.97
same,AUC(0-inf),[1]; po,298 µg·h/mL
same,Cmax,[1]; po,20800 ng/mL
same,half-life,[1]; po,7.3 h
same,Tmax,[1]; po,5 h
CNS(=O)(=O)C1CN(c2nccc(COc3ccc(-c4ccc(C(C)(C)c5cc(Cl)c(OCCCl)c(C#N)c5)cc4)nc3)n2)C1 [Compound 258],pIC50,"22RV1 cells; 22Rv1, 168 h",6.20
same,AUC(0-inf),[1]; po,323 µg·h/mL
same,Cmax,[1]; po,39200 ng/mL
same,half-life,[1]; po,5.2 h
same,Tmax,[1]; po,3 h
CC(C)(c1ccc(-c2ncc(OCc3ccc(-c4cnc(P(C)(C)=O)nc4)cc3)cn2)cc1)c1cc(Cl)c(OCCCl)c(C#N)c1 [Compound 272],pIC50,"22RV1 cells; 22Rv1, 168 h",6.19
same,AUC(0-inf),[1]; po,755 µg·h/mL
same,Cmax,[1]; po,53200 ng/mL
same,half-life,[1]; po,5.8 h
same,Tmax,[1]; po,4 h
C[C@H](Cl)COc1c(Cl)cc(C(C)(C)c2ccc(-c3ccc(OCc4ccnc(P(C)(C)=O)n4)cc3)cc2)cc1C#N [Compound 283],pIC50,"22RV1 cells; 22Rv1, 168 h",6.08
same,AUC(0-inf),[1]; po,277 µg·h/mL
same,Cmax,[1]; po,18700 ng/mL
same,half-life,[1]; po,9.3 h
same,Tmax,[1]; po,4 h
CC(C)(c1ccc(-c2ccc(OCC3CC4(C3)CS(=N)(=O)C4)cc2)cc1)c1cc(Cl)c(OCCCl)c(C#N)c1 (stereo not drawn) [Compound 308],pIC50,"22RV1 cells; 22Rv1, 168 h",6.12
same,AUC(0-inf),[1]; po,186 µg·h/mL
same,Cmax,[1]; po,14300 ng/mL
same,half-life,[1]; po,4.45 h
same,Tmax,[1]; po,3 h
CC(C)(c1ccc(-c2cccc3c(OCc4ccnc(P(C)(C)=O)n4)nccc23)cc1)c1cc(Cl)c(OCCCl)c(C#N)c1 [Compound 345],pIC50,LNCaP cells,6.64
CC(C)(c1ccc(-c2ccc(OCC34CC(c5cnc(P(C)(C)=O)nc5)(C3)C4)cn2)cc1)c1cc(Cl)c(OCCCl)c(C#N)c1 [Compound 367],pIC50,LNCaP cells,6.04
CC(C)(c1ccc(-c2cnc(OCc3ccnc(N4CC(S(C)(=N)=O)C4)n3)nc2)cc1)c1cc(Cl)c(OCCCl)c(C#N)c1 (stereo not drawn) [Compound 372],pIC50,LNCaP cells,6.18
CC(C)(c1ccc(-c2cnc(OCc3ccc(-c4cnc(P(C)(C)=O)nc4)nc3)nc2)cc1)c1cc(Cl)c(OCCCl)c(C#N)c1 [Compound 374],pIC50,LNCaP cells,6.04
CC(C)(c1ccc(-c2cnc(COc3ccnc(N4CC(S(C)(=O)=O)C4)n3)nc2)cc1)c1cc(Cl)c(OCCCl)c(C#N)c1 [Compound 383],pIC50,LNCaP cells,6.24
CC(C)(c1ccc(-c2ccc(Oc3ncc(-c4cnc(CP(C)(C)=O)nc4)cn3)cc2)cc1)c1cc(Cl)c(OCCCl)c(C#N)c1 [Compound 399],pIC50,LNCaP cells,6.01
CC(C)(c1ccc(-c2ccc(OCc3ccnc(N4CC5(C4)CS(=N)(=O)C5)n3)nc2)cc1)c1cc(Cl)c(OCCCl)c(C#N)c1 [Compound 400],pIC50,LNCaP cells,6.16
CC(C)(c1ccc(-c2ccc(OCc3ccnc(N4CC5(CCS5(=N)=O)C4)n3)cn2)cc1)c1cc(Cl)c(OCCCl)c(C#N)c1 (stereo not drawn) [Compound 404],pIC50,LNCaP cells,6.31
CC(C)(c1ccc(-c2ccc(OCc3cnc(-c4cnc(P(C)(C)=O)nc4)cn3)cc2)cc1)c1cc(Cl)c(OCCCl)c(C#N)c1 [Compound 408],pIC50,LNCaP cells,6.74
CC(C)(c1ccc(-c2ccc(OCc3ccnc(N4CC(S(C)(=O)=NC#N)C4)n3)cn2)cc1)c1cc(Cl)c(OCCCl)c(C#N)c1 (stereo not drawn) [Compound 413],pIC50,LNCaP cells,6.10
CC(C)(c1ccc(-c2ccc(OCc3ccnc(N4CC(S(C)(=O)=O)C4)n3)nn2)cc1)c1cc(Cl)c(OCCCl)c(C#N)c1 [Compound 423],pIC50,LNCaP cells,6.34
CC(C)(c1ccc(-c2ncc(OCc3ccc(-c4cnc(P(C)(C)=O)nc4)nc3)cn2)cc1)c1cc(Cl)c(OCCCl)c(C#N)c1 [Compound 426],pIC50,LNCaP cells,6.03
CC(C)(c1ccc(-c2ccc(COc3ccnc(P(C)(C)=O)n3)nc2)cc1)c1cc(Cl)c(OCCCl)c(C#N)c1 [Compound 427],pIC50,LNCaP cells,6.08
CC(C)(c1ccc(-c2ccc3c(c2)C(=O)N(Cc2ccnc(P(C)(C)=O)n2)C3)cc1)c1cc(Cl)c(OCCCl)c(C#N)c1 [Compound 439],pIC50,LNCaP cells,6.33
CC(=O)c1nccc(COc2cnc(-c3ccc(C(C)(C)c4cc(Cl)c(OCCCl)c(C#N)c4)cc3)cn2)n1 [Compound 441],pIC50,LNCaP cells,6.02
CC(C)(c1ccc(-c2ncc(OCc3ccc(-c4ccc(P(C)(C)=O)nn4)cc3)cn2)cc1)c1cc(Cl)c(OCCCl)c(C#N)c1 [Compound 455],pIC50,LNCaP cells,6.80
CC(C)(c1ccc(N2CCCc3cc(OCc4ccnc(P(C)(C)=O)n4)ccc32)cc1)c1cc(Cl)c(OCCCl)c(C#N)c1 [Compound 457],pIC50,LNCaP cells,6.01
CC(C)(c1ccc(-c2ccc(OCc3ccnc(P(C)(C)=O)n3)cc2)nc1)c1cc(Cl)c(OCCCl)c(C#N)c1 [Compound 459],pIC50,LNCaP cells; LNCaP,6.00
CC(C)(c1ccc(-c2ccc(OCc3ccnc(N4CC(S(C)(=O)=O)C4)n3)cc2)nc1)c1cc(Cl)c(OCCCl)c(C#N)c1 [Compound 460],pIC50,LNCaP cells,6.35
CC(C)(c1ccc(-c2ccc(OCc3ccnc(N4CC(S(C)(=N)=O)C4)n3)cc2)nc1)c1cc(Cl)c(OCCCl)c(C#N)c1 (stereo not drawn) [Compound 461],pIC50,LNCaP cells,6.24
CC(C)(c1cc(Cl)c(OCCCl)c(C#N)c1)c1ccc(-c2ccc(OCc3ccnc(P(C)(C)=O)n3)cc2)cn1 [Compound 474],pIC50,LNCaP cells,6.17
CC(C)(c1cc(Cl)c(OCCCl)c(C#N)c1)c1ccc(-c2ccc(OCc3ccnc(N4CC(S(C)(=N)=O)C4)n3)cn2)cn1 (stereo not drawn) [Compound 475],pIC50,LNCaP cells,6.15
CC(C)(c1cc(Cl)c(OCCCl)c(C#N)c1)c1ccc(-c2ccc(OCc3ccnc(N4CC(S(C)(=O)=O)C4)n3)nc2)cn1 [Compound 478],pIC50,LNCaP cells,6.11
CC(C)(c1cc(Cl)c(OCCCl)c(C#N)c1)c1ccc(-c2ccc(OCc3ccnc(N4CC(S(C)(=N)=O)C4)n3)nc2)cn1 (stereo not drawn) [Compound 479],pIC50,LNCaP cells,6.15
